This passage reports viability and MIC results from US11713318B2, “Short conjugated oligoelectrolytes and uses thereof” (The Regents Of The University Of California, priority 2018, dated 2023).

Structures are written as SMILES.

Data set [1] can be described thus: Cytotoxicity tested by Eurofins Pharma Discovery Services. The format is cell-based. Particulars: Primary Human Hepatocytes, Eurofins; at the concentration given as IC50 bound; read-out: cell viability at the highest or lowest test concentration.
For data set [2], the system named is S. pneumoniae D39. Briefly: MIC panel of pathogens, Table 4. In kind it is cell-based. Particulars: Streptococcus pneumoniae.

Consider `C[N+](C)(C)CCCCOc1cc(/C=C/c2ccc(/C=C/c3cc(OCCCC[N+](C)(C)C)cc(OCCCC[N+](C)(C)C)c3)cc2)cc(OCCCC[N+](C)(C)C)c1.[I-].[I-].[I-].[I-]` [Formula F], for which the viability in data set [1] was 79%.
Broadly, the MIC is the lowest concentration found to suppress growth. A high value points to a less susceptible organism. Take `CCCCCC[N+](C)(C)CCCCCCOc1cc(/C=C/c2cc(OCCCCCC[N+](C)(C)CCCCCC)cc(OCCCCCC[N+](C)(C)CCCCCC)c2)cc(OCCCCCC[N+](C)(C)CCCCCC)c1` [Formula E]: the MIC in data set [2] came to 4 µg/mL.
